According to patent US20250034136A1 (Nimbus Wadjet, Inc., priority 2023, published 2025):

Assays:
[1] = target: WRN (BV08), human Werner helicase (Uniprot Q14191, amino acids 517-1235 with L1074F point mutation) (Homo sapiens (Human), UniProt Q14191, L1074F); experiment: WRN (BV08) ADP-Glo assay; assay type: biochemical; conditions: class symbols A-E, read-out: ADP-Glo_hWRN_IC50
[2] = system: p21 induction in HCT116 cells; experiment: p21 induction in HCT116 cells; assay type: cell-based; conditions: Homo sapiens, HCT-116, 24 h, HCT116 cells, 24 h compound incubation; read-out: P21_EC50
How it was run: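 HCT116 cells, 2,000/well, treated 24 h at 37 °C with 11-point compound dilutions in duplicate. Fixed, then immunostained for p21 and GAPDH and read by near-IR imaging at 800/700 nm. Normalized to DMSO (low) and reference WRN inhibitor (high) controls; EC50 from non-linear regression.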

Sequence of WRN (BV08), human Werner helicase (Uniprot Q14191, amino acids 517-1235 with L1074F point mutation) (Q14191 other isoform, or with tags, fused parts or gaps L1074F (already in the parent)): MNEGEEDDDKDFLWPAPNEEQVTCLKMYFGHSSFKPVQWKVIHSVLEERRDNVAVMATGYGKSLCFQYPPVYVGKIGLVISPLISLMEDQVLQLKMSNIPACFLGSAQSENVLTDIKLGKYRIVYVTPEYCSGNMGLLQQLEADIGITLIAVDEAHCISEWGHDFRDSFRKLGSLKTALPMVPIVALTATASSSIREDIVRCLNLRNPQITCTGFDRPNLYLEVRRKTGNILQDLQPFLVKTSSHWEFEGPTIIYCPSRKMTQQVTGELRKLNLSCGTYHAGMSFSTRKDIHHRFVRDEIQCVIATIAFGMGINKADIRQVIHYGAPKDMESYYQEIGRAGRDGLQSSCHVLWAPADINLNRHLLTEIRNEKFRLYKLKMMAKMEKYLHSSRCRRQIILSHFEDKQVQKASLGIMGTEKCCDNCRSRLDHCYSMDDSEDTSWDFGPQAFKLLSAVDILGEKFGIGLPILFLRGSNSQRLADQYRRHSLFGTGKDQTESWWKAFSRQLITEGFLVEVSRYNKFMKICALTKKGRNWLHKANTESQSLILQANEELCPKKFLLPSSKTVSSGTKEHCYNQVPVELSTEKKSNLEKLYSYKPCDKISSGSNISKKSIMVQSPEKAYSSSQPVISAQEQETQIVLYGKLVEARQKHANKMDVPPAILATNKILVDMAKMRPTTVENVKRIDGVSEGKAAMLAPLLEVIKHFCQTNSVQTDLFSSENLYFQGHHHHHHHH

IC50 [1] [nM]	EC50 [2] [nM]	SMILES
5 to 50	> 5000	CCc1c(N2CCN(C(=O)c3ncnc(C)c3O)CC2)c(=O)c2nc(N3CCCC3C(C)(C)O)cnc2n1CC(=O)Nc1ccc(C(F)(F)F)cc1Cl (stereo not shown) [I-152, N-[2-chloro-4-(trifluoromethyl)phenyl]-2-{6-ethyl-7-[4-(5-hydroxy-6-methylpyrimidine-4-carbonyl)piperazin-1-yl]-2-[2-(2-hydroxypropan-2-yl)pyrrolidin-1-yl]-8-oxo-5H,8H-pyrido[2,3-b]pyrazin-5-yl}acetamide]
> 500	> 5000	CCc1c(N2CCN(C(=O)c3ncnc(C)c3O)CC2)c(=O)c2nc(N(C)CCN(C)C)cnc2n1CC(=O)Nc1ccc(C(F)(F)F)cc1Cl [I-154, N-[2-chloro-4-(trifluoromethyl)phenyl]-2-(2-{[2-(dimethylamino)ethyl](methyl)amino}-6-ethyl-7-[4-(5-hydroxy-6-methylpyrimidine-4-carbonyl)piperazin-1-yl]-8-oxo-5H,8H-pyrido[2,3-b]pyrazin-5-yl)acetamide]
5 to 50	500 to 2000	CCc1c(N2CCN(C(=O)c3ncnc(C)c3O)CC2)c(=O)c2nc(N3CC4CC4C3)cnc2n1CC(=O)Nc1ccc(C(F)(F)F)cc1Cl (stereo not shown) [I-156, 2-(2-{3-azabicyclo[3.1.0]hexan-3-yl}-6-ethyl-7-[4-(5-hydroxy-6-methylpyrimidine-4-carbonyl)piperazin-1-yl]-8-oxo-5H,8H-pyrido[2,3-b]pyrazin-5-yl)-N-[2-chloro-4-(trifluoromethyl)phenyl]acetamide]
5 to 50	500 to 2000	CCc1c(N2CCN(C(=O)c3ncnc(C)c3O)CC2)c(=O)c2nc(N3CC4(CC4)C3)cnc2n1CC(=O)Nc1ccc(C(F)(F)F)cc1Cl [I-162, 2-(2-{5-azaspiro[2.3]hexan-5-yl}-6-ethyl-7-[4-(5-hydroxy-6-methylpyrimidine-4-carbonyl)piperazin-1-yl]-8-oxo-5H,8H-pyrido[2,3-b]pyrazin-5-yl)-N-[2-chloro-4-(trifluoromethyl)phenyl]acetamide]
5 to 50	2000 to 5000	CCc1c(N2CCN(C(=O)c3ncnc(C)c3O)CC2)c(=O)c2nc(N3CC(F)C3)cnc2n1CC(=O)Nc1ccc(C(F)(F)F)cc1Cl [I-164, N-[2-chloro-4-(trifluoromethyl)phenyl]-2-[6-ethyl-2-(3-fluoroazetidin-1-yl)-7-[4-(5-hydroxy-6-methylpyrimidine-4-carbonyl)piperazin-1-yl]-8-oxo-5H,8H-pyrido[2,3-b]pyrazin-5-yl]acetamide]
5 to 50	500 to 2000	CCc1c(N2CCN(C(=O)c3ncnc(C)c3O)CC2)c(=O)c2nc(NC3CC3)cnc2n1CC(=O)Nc1ccc(C(F)(F)F)cc1Cl [I-165, N-[2-chloro-4-(trifluoromethyl)phenyl]-2-[2-(cyclopropylamino)-6-ethyl-7-[4-(5-hydroxy-6-methylpyrimidine-4-carbonyl)piperazin-1-yl]-8-oxo-5H,8H-pyrido[2,3-b]pyrazin-5-yl]acetamide]
5 to 50	< 500	CCc1c(N2CCN(C(=O)c3ncnc(C)c3O)CC2)c(=O)c2nc(N3CCC34CCC4)cnc2n1CC(=O)Nc1ccc(C(F)(F)F)cc1Cl [I-170, 2-(2-{1-azaspiro[3.3]heptan-1-yl}-6-ethyl-7-[4-(5-hydroxy-6-methylpyrimidine-4-carbonyl)piperazin-1-yl]-8-oxo-5H,8H-pyrido[2,3-b]pyrazin-5-yl)-N-[2-chloro-4-(trifluoromethyl)phenyl]acetamide]
5 to 50	2000 to 5000	CCc1c(N2CCN(C(=O)c3ncnc(C)c3O)CC2)c(=O)c2nc(N(C)C(C)C)cnc2n1CC(=O)Nc1ccc(C(F)(F)F)cc1Cl [I-175, N-[2-chloro-4-(trifluoromethyl)phenyl]-2-{6-ethyl-7-[4-(5-hydroxy-6-methylpyrimidine-4-carbonyl)piperazin-1-yl]-2-[methyl(propan-2-yl)amino]-8-oxo-5H,8H-pyrido[2,3-b]pyrazin-5-yl}acetamide]

Continued, compound first:

SMILES	IC50 [1] [nM]	EC50 [2] [nM]
CCc1c(N2CCN(C(=O)c3ncnc(C)c3O)CC2)c(=O)c2nc(N3CCC[C@H]3C(C)(C)O)cnc2n1CC(=O)Nc1ccc(C(F)(F)F)cc1Cl [I-153, N-[2-chloro-4-(trifluoromethyl)phenyl]-2-{6-ethyl-7-[4-(5-hydroxy-6-methylpyrimidine-4-carbonyl)piperazin-1-yl]-2-[(2S)-2-(2-hydroxypropan-2-yl)pyrrolidin-1-yl]-8-oxo-5H,8H-pyrido[2,3-b]pyrazin-5-yl}acetamide]	5 to 50	2000 to 5000
CCc1c(N2CCN(C(=O)c3ncnc(C)c3O)CC2)c(=O)c2nc(N3C[C@@H]4[C@H](C3)[C@H]4N(C)C)cnc2n1CC(=O)Nc1ccc(C(F)(F)F)cc1Cl [I-155, N-[2-chloro-4-(trifluoromethyl)phenyl]-2-{2-[(1R,5S,6S)-6-(dimethylamino)-3-azabicyclo[3.1.0]hexan-3-yl]-6-ethyl-7-[4-(5-hydroxy-6-methylpyrimidine-4-carbonyl)piperazin-1-yl]-8-oxo-5H,8H-pyrido[2,3-b]pyrazin-5-yl}acetamide]	50 to 100	> 5000
C=C(F)c1cnc2c(n1)c(=O)c(N1CCN(C(=O)c3ncnc(C)c3O)CC1)c(CC)n2CC(=O)Nc1ccc(C(F)(F)F)cc1Cl [I-157, N-[2-chloro-4-(trifluoromethyl)phenyl]-2-[6-ethyl-2-(1-fluoroethenyl)-7-[4-(5-hydroxy-6-methylpyrimidine-4-carbonyl)piperazin-1-yl]-8-oxo-5H,8H-pyrido[2,3-b]pyrazin-5-yl]acetamide]	5 to 50	500 to 2000
CCc1c(N2CCN(C(=O)c3c(C#N)cnc(C)c3O)CC2)c(=O)c2nc(C)cnc2n1CC(=O)Nc1ccc(C(F)(F)F)cc1Cl [I-158, N-[2-chloro-4-(trifluoromethyl)phenyl]-2-{7-[4-(5-cyano-3-hydroxy-2-methylpyridine-4-carbonyl)piperazin-1-yl]-6-ethyl-2-methyl-8-oxo-5H,8H-pyrido[2,3-b]pyrazin-5-yl}acetamide]	5 to 50	> 5000
CCc1c(N2CCN(C(=O)c3ncnc(C)c3O)CC2)c(=O)c2nc(C3=CCN(C(=O)OC)C3)cnc2n1CC(=O)Nc1ccc(C(F)(F)F)cc1Cl [I-159, methyl 3-[5-({[2-chloro-4-(trifluoromethyl)phenyl]carbamoyl}methyl)-6-ethyl-7-[4-(5-hydroxy-6-methylpyrimidine-4-carbonyl)piperazin-1-yl]-8-oxo-5H,8H-pyrido[2,3-b]pyrazin-2-yl]-2,5-dihydro-1H-pyrrole-1-carboxylate]	5 to 50	> 5000
CCc1c(N2CCN(C(=O)c3ncnc(C)c3O)CC2)c(=O)c2nc(N3CC(F)(F)C3)cnc2n1CC(=O)Nc1ccc(C(F)(F)F)cc1Cl [I-160, N-[2-chloro-4-(trifluoromethyl)phenyl]-2-[2-(3,3-difluoroazetidin-1-yl)-6-ethyl-7-[4-(5-hydroxy-6-methylpyrimidine-4-carbonyl)piperazin-1-yl]-8-oxo-5H,8H-pyrido[2,3-b]pyrazin-5-yl]acetamide]	5 to 50	> 5000
CCc1c(N2CCN(C(=O)c3ncnc(C)c3O)CC2)c(=O)c2nc(NC3CCC3)cnc2n1CC(=O)Nc1ccc(C(F)(F)F)cc1Cl [I-161, N-[2-chloro-4-(trifluoromethyl)phenyl]-2-[2-(cyclobutylamino)-6-ethyl-7-[4-(5-hydroxy-6-methylpyrimidine-4-carbonyl)piperazin-1-yl]-8-oxo-5H,8H-pyrido[2,3-b]pyrazin-5-yl]acetamide]	5 to 50	2000 to 5000
CCc1c(N2CCN(C(=O)c3ncnc(C)c3O)CC2)c(=O)c2nc(N3CCC4(COC4)C3)cnc2n1CC(=O)Nc1ccc(C(F)(F)F)cc1Cl [I-163, N-[2-chloro-4-(trifluoromethyl)phenyl]-2-{6-ethyl-7-[4-(5-hydroxy-6-methylpyrimidine-4-carbonyl)piperazin-1-yl]-2-{2-oxa-6-azaspiro[3.4]octan-6-yl}-8-oxo-5H,8H-pyrido[2,3-b]pyrazin-5-yl}acetamide]	5 to 50	> 5000
CCc1c(N2CCN(C(=O)c3ncnc(C)c3O)CC2)c(=O)c2nc(C=C3CCCC3)cnc2n1CC(=O)Nc1ccc(C(F)(F)F)cc1Cl [I-166, N-[2-chloro-4-(trifluoromethyl)phenyl]-2-[2-(cyclopentylidenemethyl)-6-ethyl-7-[4-(5-hydroxy-6-methylpyrimidine-4-carbonyl)piperazin-1-yl]-8-oxo-5H,8H-pyrido[2,3-b]pyrazin-5-yl]acetamide]	≤ 5	500 to 2000
CCc1c(N2CCN(C(=O)c3ncnc(C)c3O)CC2)c(=O)c2nc(N(C)CC(F)F)cnc2n1CC(=O)Nc1ccc(C(F)(F)F)cc1Cl [I-167, N-[2-chloro-4-(trifluoromethyl)phenyl]-2-{2-[(2,2-difluoroethyl)(methyl)amino]-6-ethyl-7-[4-(5-hydroxy-6-methylpyrimidine-4-carbonyl)piperazin-1-yl]-8-oxo-5H,8H-pyrido[2,3-b]pyrazin-5-yl}acetamide]	5 to 50	2000 to 5000
CCc1c(N2CC3COCC(C2)N3C(=O)c2ncnc(C)c2O)c(=O)c2nc(N(C)C)cnc2n1CC(=O)Nc1ccc(C(F)(F)F)cc1Cl [I-168, N-[2-chloro-4-(trifluoromethyl)phenyl]-2-[2-(dimethylamino)-6-ethyl-7-[9-(5-hydroxy-6-methylpyrimidine-4-carbonyl)-3-oxa-7,9-diazabicyclo[3.3.1]nonan-7-yl]-8-oxo-5H,8H-pyrido[2,3-b]pyrazin-5-yl]acetamide]	100 to 500	> 5000
CCc1c(N2CCN(C(=O)c3ncnc(C)c3O)CC2)c(=O)c2nc(C(C)(C)F)cnc2n1CC(=O)Nc1ccc(C(F)(F)F)cc1Cl [I-174, N-[2-chloro-4-(trifluoromethyl)phenyl]-2-[6-ethyl-2-(2-fluoropropan-2-yl)-7-[4-(5-hydroxy-6-methylpyrimidine-4-carbonyl)piperazin-1-yl]-8-oxo-5H,8H-pyrido[2,3-b]pyrazin-5-yl]acetamide]	5 to 50	2000 to 5000
